Where two headings read alike, the source gives them in different places.
What was measured:
VEGF-R2 = target: T1, VEGF-R2 (Homo sapiens, UniProt P35968, DEL940-989/E990V); test: VEGF-R2 Assay (coupled spectrophotometric FLVK-P / ELISA); format: biochemical; conditions: for inhibition at 1 µM: read-out: VEGF % Inhib. at 1 μM
T1 construct: VEGF-R2Δ50 contains residues 806–939 and 990–1171; made in house; host or cells: baculovirus/insect cells
Description: VEGF-R2 Construct for Assay
This construct determines the ability of a test compound to inhibit tyrosine kinase activity. A construct (VEGF-R2Δ50) of the cytosolic domain of human vascular endothelial growth factor receptor 2 (VEGF-R2) lacking the 50 central residues of the 68 residues of the kinase insert domain was expressed in a baculovirus/insect cell system. Of the 1356 residues of full-length VEGF-R2, VEGF-R2Δ50 contains residues 806–939 and 990–1171, and also one point mutation (E990V) within the kinase insert domain relative to wild-type VEGF-R2. […] See Parast et al., Biochemistry, 37,16788–16801 (1998).
Coupled Spectrophotometric (FLVK-P) Assay
The production of ADP from ATP that accompanies phosphoryl transfer was coupled to oxidation of NADH using phosphoenolpyruvate (PEP) and a system having pyruvate kinase (PK) and lactic dehydrogenase (LDH). The oxidation of NADH was monitored by following the decrease of absorbance at 340 nm (e340=6.22 cm^1 mM^−1) using a Beckman DU 650 spectrophotometer. Assay conditions for phosphorylated VEGF-R2A50 (indicated as FLVK-P in the tables below) were the following: 1 mM PEP; 250 μM NADH; 50 units of LDH/mL; 20 units of PK/mL; 5 mM DTT; 5.1 mM poly(E4Y1); 1 mM ATP; and 25 mM MgCl2 in 200 mM Hepes, pH 7.5. Assay conditions for unphosphorylated VEGF-R2A50 (indicated as FLVK in the tables) were the following: 1 mM PEP; 250 μM NADH; 50 units of LDH/mL; 20 units of PK/mL; 5 mM DTT; 20 mM poly(E4Y1); 3 mM ATP; and 60 mM MgCl2 and 2 mM MnCl2 in 200 mM Hepes, pH 7.5. Assays were initiated with 5 to 40 nM of enzyme. Ki values were determined by measuring enzyme activity in the presence of varying concentrations of test compounds. The data were analyzed using Enzyme Kinetic and Kaleidagraph software.
Formation of phosphogastrin was monitored using biotinylated gastrin peptide (1–17) as substrate. Biotinylated phosphogastrin was immobilized using streptavidin coated 96-well microtiter plates followed by detection using anti-phosphotyrosine-antibody conjugated to horseradish peroxidase. The activity of horseradish peroxidase was monitored using 2,2′-azino-di-[3-ethylbenzathiazoline sulfonate(6)] diammonium salt (ABTS). Typical assay solutions contained: 2 μM biotinylated gastrin peptide; 5 mM DTT; 20 μM ATP; 26 mM MgCl2; and 2 mM MnCl2 in 200 mM Hepes, pH 7.5. The assay was initiated with 0.8 nM of phosphorylated VEGF-R2Δ50. Horseradish peroxidase activity was assayed using ABTS, 10 mM. The horseradish peroxidase reaction was quenched by addition of acid (H2SO4), followed by absorbance reading at 405 nm. Ki values were determined by measuring enzyme activity in the presence of varying concentrations of test compounds. The data were analyzed using Enzyme Kinetic and Kaleidagraph software.

HCT 116 cell line = test: Inhibition of Cell Growth (MTT tetrazolium salt assay); format: cell-based; conditions: Homo sapiens
Procedure, shortened: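 HCT 116 cells in McCoy's 5A were dosed 4 h after plating, in 0.5% (v/v) DMSO, then held 4–6 days at 37 °C, 5% CO2. MTT at 0.2 mg/mL final for 4 h; DMSO-solubilized formazan read at 540 nm. IC50 taken from the linear part of a semi-log plot versus DMSO-only controls.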

[1] = HCT 116, MTT, 50% inhibition of growth, read-out: HCT 116 IC50
[2] = HCT 116, MTT, IC90, read-out: HCT 116 IC90
[3] = HCT-116, read-out: HCT 116 IC50 (uM)
[4] = HCT-116, read-out: HCT 116 IC90 (uM)

T1 sequence (P35968 with tags, fused parts or gaps DEL940-989/E990V limits assumed): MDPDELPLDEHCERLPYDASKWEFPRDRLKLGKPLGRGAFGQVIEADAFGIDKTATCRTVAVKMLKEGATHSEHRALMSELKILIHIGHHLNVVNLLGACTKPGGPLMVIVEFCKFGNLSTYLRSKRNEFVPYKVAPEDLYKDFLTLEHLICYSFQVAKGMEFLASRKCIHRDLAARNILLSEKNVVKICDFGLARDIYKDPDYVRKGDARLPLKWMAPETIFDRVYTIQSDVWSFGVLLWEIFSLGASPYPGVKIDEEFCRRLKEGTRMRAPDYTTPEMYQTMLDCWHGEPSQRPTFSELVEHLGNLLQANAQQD

Row | SMILES | inhibition at 1 µM (VEGF-R2) [%] | IC50 (HCT 116 cell line; [1]) [µM] | IC90 (HCT 116 cell line; [2]) [µM] | IC50 (HCT 116 cell line; [3]) [µM] | IC90 (HCT 116 cell line; [4]) [µM] | Ki (VEGF-R2) [nM]
1 | Cc1c(CCCO)cncc1-c1ccc2[nH]nc(-c3nc4ccccc4[nH]3)c2c1 [Example 60, (E)-3-{5-[3-(1H-Benzoimidazol-2-yl)-1H-indazol-5-yl]-4-methyl-pyridin-3-yl}-propan-1-ol] | 26 | 0.2 | 0.5 |  |  | 
2 | CS(=O)(=O)Nc1ccc2nc(-c3n[nH]c4ccc(-c5cncc6ccccc56)cc34)[nH]c2c1 [Example 70, N-[2-(5-Isoquinolin-4-yl-1H-indazol-3-yl)-3H-benzoimidazol-5-yl]-methanesulfonamide] | 45 | 0.18 | 0.44 |  |  | 
3 | Fc1ccccc1-c1ccc2[nH]nc(-c3nc4ccccc4[nH]3)c2c1 [Example 6, 3-(1H-Benzoimidazol-2-yl)-5-(2-fluorophenyl)-1H-Indazole] | 64 | 6 | 21 |  |  | 
4 | Cc1c(-c2cccnc2)cncc1-c1ccc2[nH]nc(-c3nc4ccccc4[nH]3)c2c1 [Example 58] | 17 | 0.46 | 1.3 |  |  | 
5 | CCc1cncc(-c2ccc3[nH]nc(/C=C/c4ccccc4)c3c2)c1Cl [Example 46, 5-(4-Chloro-5-ethyl-pyridin-3-yl)-3-(E)-styryl-1H-indazole] | 51 |  |  |  |  | 
6 | Cc1c(O)cccc1-c1ccc2[nH]nc(-c3nc4ccccc4[nH]3)c2c1 [10′, 3-[3-(1H-Benzoimidazol-2-yl)-1H-indazol-5-yl]-2-methyl-phenol] |  | 1.5 | 3.8 |  |  | 
7 | Cc1c(O)cccc1-c1ccc2[nH]nc(/C=C/c3ccccc3)c2c1 [15′, 2-Methyl-3-[3-((E)-styryl)-1H-indazol-5-yl]-phenol] |  | 1.2 | 2.5 |  |  | 
8 | CCN(CC)Cc1cccc2[nH]c(-c3n[nH]c4ccc(-c5cncc6ccccc56)cc34)nc12 [Example 36, Diethyl-[2-(5-isoquinolin-4-yl-1H-indazol-3-yl)-1H-benzoimidazol-4-ylmethyl]-amine] | 15 | 0.024 | 0.06 |  |  | 
9 | Cc1c(/C=C/CO)cncc1-c1ccc2[nH]nc(-c3nc4ccccc4[nH]3)c2c1 [Example 59, (E)-3-{5-[3-(1H-Benzoimidazol-2-yl)-1H-indazol-5-yl]-4-methyl-pyridin-3-yl}-prop-2-en-1-ol] | 31 | 0.2 | 0.48 |  |  | 
10 | CCNCc1cncc(-c2ccc3[nH]nc(-c4nc5ccccc5[nH]4)c3c2)c1C [Example 74, {5-[3-(1H-Benzoimidazol-2-yl)-1H-indazol-5-yl]-4-methyl-pyridin-3-ylmethyl}-ethyl-amine] | 14 |  |  |  |  | 
11 | Cc1c(CN(C)C)cncc1-c1ccc2[nH]nc(-c3nc4ccccc4[nH]3)c2c1 [Example 73, {5-[3-(1H-Benzoimidazol-2-yl)-1H-indazol-5-yl]-4-methyl-pyridin-3-ylmethyl}-dimethyl-amine] | 15 | 0.2 | 0.6 |  |  | 
12 | CC(C)NCc1cccc2[nH]c(-c3n[nH]c4ccc(-c5cncc6ccccc56)cc34)nc12 [Example 38, Isopropyl-[2-(5-isoquinolin-4-yl-1H-indazol-3-yl)-1H-benzoimidazol-4-ylmethyl]-amine] | 9 |  |  | 0.029 | 0.06 | 
13 | Cc1c(-c2cccc(CO)c2)cncc1-c1ccc2[nH]nc(-c3nc4ccccc4[nH]3)c2c1 [Example 69, (3-{5-[3-(1H-Benzoimidazol-2-yl)-1H-indazol-5-yl]-4-methyl-pyridin-3-yl}-phenyl)-methanol] | 38 | 0.69 | 2.1 |  |  | 
14 | C(=C\c1n[nH]c2ccc(-c3cncc4ccccc34)cc12)/c1ccccc1 [Example 16] | 36 | 3 | 5 |  |  | 
15 | Cc1c(-c2ccncc2)cncc1-c1ccc2[nH]nc(-c3nc4ccc(NS(C)(=O)=O)cc4[nH]3)c2c1 [Example 71, N-{2-[5-(4-methyl-[3,4′]bipyridinyl-5-yl)-1H-indazol-3-yl)-3H-benzoimidazol-5-yl]-methanesulfonamide] | 42 | 0.7 | 2 |  |  | 
16 | c1ccc2[nH]c(-c3n[nH]c4ccc(-c5cccc6[nH]ccc56)cc34)nc2c1 [Example 48, 3-(1H-Benzoimidazol-2-yl)-5-(1H-indol-4-yl)-1H-indazole] |  | 3.9 | 5 |  |  | 
17 | Clc1ccncc1-c1ccc2[nH]nc(-c3nc4ccccc4[nH]3)c2c1 [Example 52, 3-(1H-Benzoimidazol-2-yl)-5-(4-chloro-pyridin-3-yl)-1H-indazole] | 38 | 0.5 | 2.2 |  |  | 
18 | Cc1c(-c2ccncc2)cncc1-c1ccc2[nH]nc(-c3nc4ccccc4[nH]3)c2c1 [Example 53, 5-[3-(1H-Benzoimidazol-2-yl)-1H-indazol-5-yl]-4-methyl-[3,4′]bipyridinyl] | 32 | 0.2 | 0.75 |  |  | 
19 | CCNCc1cccc2[nH]c(-c3n[nH]c4ccc(-c5cncc6ccccc56)cc34)nc12 [Example 37, Ethyl-[2-(5-isoquinolin-4-yl-1H-indazol-3-yl)-1H-benzoimidazol-4-ylmethyl]-amine] | 17 |  |  | 0.041 | 0.12 | 
20 | c1ccc2[nH]c(-c3n[nH]c4ccc(-c5cncc6c5CCCN6)cc34)nc2c1 [Example 54] | 46 | 0.079 | 0.23 |  |  | 
21 | O=C(Nc1cccc2c(-c3ccc4[nH]nc(-c5nc6ccccc6[nH]5)c4c3)cncc12)c1cccnc1 [Example 55, N-{4-[3-(1H-Benzoimidazol-2-yl)-1H-indazol-5-yl]-isoquinolin-8-yl}-nicotinamide] | 32 | 1.5 | 5 |  |  | 
22 | Cc1c(CO)cncc1-c1ccc2[nH]nc(-c3nc4ccccc4[nH]3)c2c1 [Example 72, {5-[3-(1H-Benzoimidazol-2-yl)-1H-indazol-5-yl]-4-methyl-pyridin-3-yl}-methanol] | 24 | 0.15 | 0.53 |  |  | 
23 | OCc1cccc2[nH]c(-c3n[nH]c4ccc(-c5cncc6ccccc56)cc34)nc12 [Example 29, [2-(5-Isoquinolin-4-yl-1H-indazol-3-yl)-1H-benzoimidazol-4-yl]-methanol] | 6 | 0.18 | 0.8 |  |  | 
24 | CN(C)Cc1cccc2[nH]c(-c3n[nH]c4ccc(-c5cncc6ccccc56)cc34)nc12 [Example 31, [2-(5-Isoquinolin-4-yl-1H-indazol-3-yl)-1H-benzoimidazol-4-ylmethyl]-dimethyl-amine] | 17 |  |  |  |  | 2900

Reference: US7232912B2, “Indazole compounds, pharmaceutical compositions, and methods for mediating or inhibiting cell proliferation” (Agouron Pharmaceuticals, Inc., priority 2000, dated 2007)
